For `Cc1ccc(-c2cc(-c3cccc(C(=O)O)c3)ncn2)cc1` [Compound 3, 3-(6-p-Tolyl-pyrimidin-4-yl)-benzoic acid], the melting point (in general, the temperature of the solid-liquid transition) lay in the range of 201 to 203 °C.
Next, `CC(C)c1ccc(-c2nccc(-c3cccc(C(N)=O)c3)n2)cc1` [Compound 4, 3-[2-(4-Isopropyl-phenyl)-pyrimidin-4-yl]-benzamide]: 167 to 169 °C.
As for `Cc1ccc(-c2nccc(-c3ccc(C(=O)O)cc3)n2)cc1` [Compound 10, 4-(2-p-Tolyl-pyrimidin-4-yl)-benzoic acid], the figure is over 310 °C; as for `Cc1ccc(-c2cc(-c3ccc(C(=O)O)cc3)ccn2)cc1` [Compound 12, 4-(2-p-Tolyl-pyridin-4-yl)-benzoic acid], 286 to 289 °C.
As for `Cc1ccc(-c2ccnc(-c3ccc(C(=O)O)cc3)c2)cc1` [Compound 13, 4-(4-p-Tolyl-pyridin-2-yl)-benzoic acid], the figure is 288 to 291 °C; as for `Cc1ccc(-c2cccc(-c3ccc(C(=O)O)cc3)n2)cc1` [Compound 14, 4-(6-p-Tolyl-pyridin-2-yl)-benzoic acid], 283 to 284 °C.
`Cc1ccc(-c2cncc(-c3ccc(C(=O)O)cc3)c2)cc1` [Compound 15, 4-(5-p-Tolyl-pyridin-3-yl)-benzoic acid] displayed a melting point of 260 to 262 °C.
Next, `COc1cccc(-c2nccc(-c3ccc(C(=O)O)cc3)n2)c1` [Compound 16, 4-[2-(3-Methoxy-phenyl)-pyrimidin-4-yl]-benzoic acid]: 270 to 273 °C; `CC(C)(C)c1ccc(-c2nccc(-c3ccc(C(=O)O)cc3)n2)cc1` [Compound 17, 4-[2-(4-tert-Butyl-phenyl)-pyrimidin-4-yl]-benzoic acid]: 293 to 296 °C; `O=C(O)c1ccc(-c2ccnc(-c3ccc(F)cc3)n2)cc1` [Compound 18, 4-[2-(4-Fluoro-phenyl)-pyrimidin-4-yl]-benzoic acid]: over 300 °C.
For the compound `O=C(O)c1ccc(-c2ccnc(-c3cccc(OC(F)(F)F)c3)n2)cc1` [Compound 19, 4-[2-(3-Trifluoromethoxy-phenyl)-pyrimidin-4-yl]-benzoic acid], the melting point was over 300 °C.
As for `O=C(O)c1ccc(-c2ccnc(-c3cccc(Cl)c3)n2)cc1` [Compound 20, 4-[2-(3-Chloro-phenyl)-pyrimidin-4-yl]-benzoic acid], the figure is 291 to 294 °C; as for `O=C(O)c1ccc(-c2ccnc(-c3ccc(C(F)(F)F)cc3)n2)cc1` [Compound 21, 4-[2-(4-Trifluoromethyl-phenyl)-pyrimidin-4-yl]-benzoic acid], over 300 °C.
Next, `O=C(O)c1ccc(-c2ccnc(-c3ccc(Cl)cc3)n2)cc1` [Compound 22, 4-[2-(4-Chloro-phenyl)-pyrimidin-4-yl]-benzoic acid]: over 300 °C; `O=C(O)c1ccc(-c2ccnc(-c3ccccc3F)n2)cc1` [Compound 23, 4-[2-(2-Fluoro-phenyl)-pyrimidin-4-yl]-benzoic acid]: over 300 °C; `O=C(O)c1ccc(-c2ccnc(-c3cccc(F)c3)n2)cc1` [Compound 25, 4-[2-(3-Fluoro-phenyl)-pyrimidin-4-yl]-benzoic acid]: 300 to 303 °C.
As for `Cc1ccccc1-c1nccc(-c2ccc(C(=O)O)cc2)n1` [Compound 26, 4-(2-o-Tolyl-pyrimidin-4-yl)-benzoic acid], the figure is 198 to 200 °C; as for `O=C(O)c1ccc(-c2ccnc(-c3ccc(OC(F)(F)F)cc3)n2)cc1` [Compound 27, 4-[2-(4-Trifluoromethoxy-phenyl)-pyrimidin-4-yl]-benzoic acid], 299 to 302 °C.
Compound `O=C(O)c1ccc(-c2ccnc(-c3ccccc3)n2)cc1` [Compound 28, 4-(2-Phenyl-pyrimidin-4-yl)-benzoic acid] yielded a melting point of over 300 °C.
As to `COc1ccc(-c2nccc(-c3ccc(C(=O)O)cc3)n2)cc1` [Compound 30, 4-[2-(4-Methoxy-phenyl)-pyrimidin-4-yl]-benzoic acid], the melting point was over 300 °C.
As for `O=C(O)c1ccc(-c2ccnc(-c3ccccc3C(F)(F)F)n2)cc1` [Compound 31, 4-[2-(2-Trifluoromethyl-phenyl)-pyrimidin-4-yl]-benzoic acid], the figure is 251 to 252 °C; as for `O=C(O)c1ccc(-c2nccc(-c3ccc(Br)cc3)n2)cc1` [Compound 33, 4-[4-(4-Bromo-phenyl)-pyrimidin-2-yl]-benzoic acid], 302 to 305 °C.
As for `O=C(O)c1ccc(-c2nccc(-c3ccc(OC(F)(F)F)cc3)n2)cc1` [Compound 34, 4-[4-(4-Trifluoromethoxy-phenyl)-pyrimidin-2-yl]-benzoic acid], the melting point lay in the range of 234 to 236 °C.
Next, `Cc1ccc(-c2ccnc(-c3ccc(C(=O)O)cc3)n2)cc1` [Compound 35, 4-(4-p-Tolyl-pyrimidin-2-yl)-benzoic acid]: 287 to 289 °C; `CC(C)c1ccc(-c2ccnc(-c3ccc(C(=O)O)cc3)n2)cc1` [Compound 36, 4-[4-(4-Isopropyl-phenyl)-pyrimidin-2-yl]-benzoic acid]: 243 to 245 °C.
`COc1ccc(-c2ccnc(-c3ccc(C(=O)O)cc3)n2)cc1` [Compound 37, 4-[4-(4-Methoxy-phenyl)-pyrimidin-2-yl]-benzoic acid] came in with a melting point of 263 to 265 °C.
Compound `O=C(O)c1ccc(-c2nccc(-c3cccc(F)c3)n2)cc1` [Compound 38, 4-[4-(3-Fluoro-phenyl)-pyrimidin-2-yl]-benzoic acid] displayed a melting point of 249 to 252 °C.
Next, `O=C(O)c1ccc(-c2nccc(-c3ccc(-c4ccccc4)cc3)n2)cc1` [Compound 39, 4-(4-Biphenyl-4-yl-pyrimidin-2-yl)-benzoic acid]: 293 to 296 °C; `O=C(O)c1ccc(-c2nccc(-c3ccc4c(c3)OCCO4)n2)cc1` [Compound 40, 4-[4-(2,3-Dihydro-benzo[1,4]dioxin-6-yl)-pyrimidin-2-yl]-benzoic acid]: 272 to 274 °C; `O=C(O)c1ccc(-c2nccc(-c3ccc(-n4ccnc4)cc3)n2)cc1` [Compound 41, 4-[4-(4-Imidazol-1-yl-phenyl)-pyrimidin-2-yl]-benzoic acid]: over 305 °C.
Next, `O=C(O)c1cccc(-c2nccc(-c3ccc4c(c3)OCCO4)n2)c1` [Compound 42, 3-[4-(2,3-Dihydro-benzo[1,4]dioxin-6-yl)-pyrimidin-2-yl]-benzoic acid]: 239 to 241 °C; `O=C(O)c1cccc(-c2ncnc(-c3ccc(F)cc3)n2)c1` [Compound 44, 3-[4-(4-Fluoro-phenyl)-[1,3,5]triazin-2-yl]-benzoic acid]: 266 to 269 °C; `CCOc1ccc(-c2ncnc(-c3cccc(C(=O)O)c3)n2)cc1` [Compound 45, 3-[4-(4-Ethoxy-phenyl)-[1,3,5]triazin-2-yl]-benzoic acid]: 269 to 272 °C.
Next, `Cc1ccc(-c2ncnc(-c3ccc(C(=O)O)cc3)n2)cc1` [Compound 46, 4-(4-p-Tolyl-[1,3,5]triazin-2-yl)-benzoic acid]: 288 to 290 °C.
